Reference: ChEMBL document CHEMBL1201862, “PubChem BioAssay data set” (2004)
Calls of active or inactive are those of the source.

Tests used:
Bcl-2-related protein A1 [1] = target: T1, Bcl-2-related protein A1 (Mus musculus, UniProt Q07440); assay: small-molecule antagonists of Bfl-1/BH3 interaction – biochemical, TR-FRET, mouse Bfl-1, confirmation (AID 621);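 note: TR-FRET binding of GST-Bfl-1 to FITC-labelled Bid peptide via terbium antibody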
T1 sequence (Q07440 whole entry): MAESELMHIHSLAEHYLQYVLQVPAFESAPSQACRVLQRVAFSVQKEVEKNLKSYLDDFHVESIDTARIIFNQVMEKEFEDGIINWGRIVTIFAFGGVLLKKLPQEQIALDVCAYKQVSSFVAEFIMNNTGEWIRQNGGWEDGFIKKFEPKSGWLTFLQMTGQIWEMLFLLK

Bcl-2-related protein A1 [2] = target: T1, Bcl-2-related protein A1; assay: Bfl-1 binding inhibitors, SAR follow-up, biochemical, fluorescence polarization (AID 1070)
[3] = Luminescent dose response cell-based high throughput screening assay for inhibitors of the Janus kinase 2 mutant JAK2V617F. [Related pubchem assays: 1446 (Primary screen.), 1521 (Confirmation assay.), 1486 (Counter screen.)]; assay type: functional
[4] = target: Luciferin 4-monooxygenase (Photinus pyralis, UniProt P08659); assay: inhibition of purified Photinus pyralis luciferase – biochemical, luminescence, dose response (AID 1891)
Chain of Luciferin 4-monooxygenase (P08659 whole entry): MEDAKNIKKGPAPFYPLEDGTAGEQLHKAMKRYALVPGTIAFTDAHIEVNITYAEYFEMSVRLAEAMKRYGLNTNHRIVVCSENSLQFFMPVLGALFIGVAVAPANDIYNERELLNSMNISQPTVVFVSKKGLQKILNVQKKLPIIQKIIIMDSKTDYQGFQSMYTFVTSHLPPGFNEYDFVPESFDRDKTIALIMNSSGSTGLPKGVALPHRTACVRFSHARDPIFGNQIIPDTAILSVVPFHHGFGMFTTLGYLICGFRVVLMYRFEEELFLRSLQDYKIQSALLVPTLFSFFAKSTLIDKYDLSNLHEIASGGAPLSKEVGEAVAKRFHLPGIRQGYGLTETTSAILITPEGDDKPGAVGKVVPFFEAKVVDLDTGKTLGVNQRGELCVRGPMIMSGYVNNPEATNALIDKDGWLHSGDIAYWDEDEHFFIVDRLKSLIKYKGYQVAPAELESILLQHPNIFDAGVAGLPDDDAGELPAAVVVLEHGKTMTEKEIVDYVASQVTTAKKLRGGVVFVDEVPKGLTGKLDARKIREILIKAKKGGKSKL

[5] = Luminescence Cell-Based Dose Confirmation HTS to Identify Inhibitors of Platelet Dense Granule Release. [Related pubchem assays: 1663 (Primary HTS), 1678 (Summary of Project)]; assay type: functional
[6] = target: T2, High affinity choline transporter 1 (Homo sapiens, UniProt Q9GZV3); assay: human choline transporter blockers, potency – cell-based, 5-point CRC, membrane potential dye, dose response (AID 504840); assay type: functional
T2 sequence (Q9GZV3 whole entry): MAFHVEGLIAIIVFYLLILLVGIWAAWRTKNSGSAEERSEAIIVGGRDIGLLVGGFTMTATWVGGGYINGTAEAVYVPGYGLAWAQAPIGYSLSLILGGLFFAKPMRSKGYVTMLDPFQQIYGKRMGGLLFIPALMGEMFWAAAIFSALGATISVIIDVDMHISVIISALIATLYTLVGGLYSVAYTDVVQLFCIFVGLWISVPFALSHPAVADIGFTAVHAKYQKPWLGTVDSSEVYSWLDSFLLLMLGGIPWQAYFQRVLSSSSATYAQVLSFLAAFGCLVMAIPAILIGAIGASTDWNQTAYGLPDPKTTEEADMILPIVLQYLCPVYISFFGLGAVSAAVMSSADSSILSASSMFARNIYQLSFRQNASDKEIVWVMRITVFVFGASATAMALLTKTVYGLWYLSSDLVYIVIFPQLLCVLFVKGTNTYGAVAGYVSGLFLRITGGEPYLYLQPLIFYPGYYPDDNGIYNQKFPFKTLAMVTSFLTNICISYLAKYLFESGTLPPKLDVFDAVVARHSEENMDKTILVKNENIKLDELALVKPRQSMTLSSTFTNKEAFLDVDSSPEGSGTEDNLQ

[7] = target: Diphosphomevalonate decarboxylase (Streptococcus pneumoniae serotype 2 (strain D39 / NCTC 7466), UniProt Q9FD53); assay: diphosphomevalonate decarboxylase inhibitor confirmation – biochemical, cuvette format, coupled NADH fluorescence (AID 1028); assay type: functional
Chain of Diphosphomevalonate decarboxylase (Q9FD53 whole entry): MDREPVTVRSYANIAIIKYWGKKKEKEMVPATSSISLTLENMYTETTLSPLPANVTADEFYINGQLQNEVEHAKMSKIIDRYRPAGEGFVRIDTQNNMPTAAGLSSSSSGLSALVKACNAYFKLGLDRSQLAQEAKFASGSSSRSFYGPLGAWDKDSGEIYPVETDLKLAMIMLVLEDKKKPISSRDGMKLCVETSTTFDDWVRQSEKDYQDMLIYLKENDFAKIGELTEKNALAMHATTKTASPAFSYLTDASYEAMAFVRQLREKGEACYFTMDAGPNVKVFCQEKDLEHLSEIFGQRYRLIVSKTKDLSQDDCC

[8] = target: E3 ubiquitin-protein ligase Mdm2 (Homo sapiens, UniProt Q00987); assay: MDM2-luc reporter signal enhancers, multi-concentration potency testing, MDM2 ubiquitin-protein ligase inhibitor program, whole-cell format, luminescence detection, 384-well microplate (AID 1394); assay type: functional;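 note: MDM2 E3 inhibitors raise luminescence so EC50 is for signal enhancement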
[9] = target: Bifunctional protein GlmU (Mycobacterium tuberculosis, UniProt P9WMN3); assay: Inhibitors of Mycobacterial Glucosamine-1-phosphate acetyl transferase (GlmU). Secondary screen.; parameters: species or system Mycobacterium tuberculosis H37Rv
[10] = target: Induced myeloid leukemia cell differentiation protein Mcl-1 (Homo sapiens, UniProt Q07820); assay type: functional
Chain of Induced myeloid leukemia cell differentiation protein Mcl-1 (Q07820 whole entry): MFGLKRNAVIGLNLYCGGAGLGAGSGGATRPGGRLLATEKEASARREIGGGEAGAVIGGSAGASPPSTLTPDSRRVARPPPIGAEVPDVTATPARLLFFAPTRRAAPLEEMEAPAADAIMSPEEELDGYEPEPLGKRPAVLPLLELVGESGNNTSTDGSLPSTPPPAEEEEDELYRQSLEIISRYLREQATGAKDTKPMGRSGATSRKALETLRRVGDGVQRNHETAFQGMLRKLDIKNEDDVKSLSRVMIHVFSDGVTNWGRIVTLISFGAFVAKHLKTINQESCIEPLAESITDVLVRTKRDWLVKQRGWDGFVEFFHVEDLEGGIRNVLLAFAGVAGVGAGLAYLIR

[11] = target: DNA (cytosine-5)-methyltransferase 1 (Homo sapiens, UniProt P26358); assay: inhibition of DNA methylation by DNMT1 – biochemical, fluorescent molecular beacon, confirmation (AID 602386); assay type: functional
Chain of DNA (cytosine-5)-methyltransferase 1 (P26358 whole entry): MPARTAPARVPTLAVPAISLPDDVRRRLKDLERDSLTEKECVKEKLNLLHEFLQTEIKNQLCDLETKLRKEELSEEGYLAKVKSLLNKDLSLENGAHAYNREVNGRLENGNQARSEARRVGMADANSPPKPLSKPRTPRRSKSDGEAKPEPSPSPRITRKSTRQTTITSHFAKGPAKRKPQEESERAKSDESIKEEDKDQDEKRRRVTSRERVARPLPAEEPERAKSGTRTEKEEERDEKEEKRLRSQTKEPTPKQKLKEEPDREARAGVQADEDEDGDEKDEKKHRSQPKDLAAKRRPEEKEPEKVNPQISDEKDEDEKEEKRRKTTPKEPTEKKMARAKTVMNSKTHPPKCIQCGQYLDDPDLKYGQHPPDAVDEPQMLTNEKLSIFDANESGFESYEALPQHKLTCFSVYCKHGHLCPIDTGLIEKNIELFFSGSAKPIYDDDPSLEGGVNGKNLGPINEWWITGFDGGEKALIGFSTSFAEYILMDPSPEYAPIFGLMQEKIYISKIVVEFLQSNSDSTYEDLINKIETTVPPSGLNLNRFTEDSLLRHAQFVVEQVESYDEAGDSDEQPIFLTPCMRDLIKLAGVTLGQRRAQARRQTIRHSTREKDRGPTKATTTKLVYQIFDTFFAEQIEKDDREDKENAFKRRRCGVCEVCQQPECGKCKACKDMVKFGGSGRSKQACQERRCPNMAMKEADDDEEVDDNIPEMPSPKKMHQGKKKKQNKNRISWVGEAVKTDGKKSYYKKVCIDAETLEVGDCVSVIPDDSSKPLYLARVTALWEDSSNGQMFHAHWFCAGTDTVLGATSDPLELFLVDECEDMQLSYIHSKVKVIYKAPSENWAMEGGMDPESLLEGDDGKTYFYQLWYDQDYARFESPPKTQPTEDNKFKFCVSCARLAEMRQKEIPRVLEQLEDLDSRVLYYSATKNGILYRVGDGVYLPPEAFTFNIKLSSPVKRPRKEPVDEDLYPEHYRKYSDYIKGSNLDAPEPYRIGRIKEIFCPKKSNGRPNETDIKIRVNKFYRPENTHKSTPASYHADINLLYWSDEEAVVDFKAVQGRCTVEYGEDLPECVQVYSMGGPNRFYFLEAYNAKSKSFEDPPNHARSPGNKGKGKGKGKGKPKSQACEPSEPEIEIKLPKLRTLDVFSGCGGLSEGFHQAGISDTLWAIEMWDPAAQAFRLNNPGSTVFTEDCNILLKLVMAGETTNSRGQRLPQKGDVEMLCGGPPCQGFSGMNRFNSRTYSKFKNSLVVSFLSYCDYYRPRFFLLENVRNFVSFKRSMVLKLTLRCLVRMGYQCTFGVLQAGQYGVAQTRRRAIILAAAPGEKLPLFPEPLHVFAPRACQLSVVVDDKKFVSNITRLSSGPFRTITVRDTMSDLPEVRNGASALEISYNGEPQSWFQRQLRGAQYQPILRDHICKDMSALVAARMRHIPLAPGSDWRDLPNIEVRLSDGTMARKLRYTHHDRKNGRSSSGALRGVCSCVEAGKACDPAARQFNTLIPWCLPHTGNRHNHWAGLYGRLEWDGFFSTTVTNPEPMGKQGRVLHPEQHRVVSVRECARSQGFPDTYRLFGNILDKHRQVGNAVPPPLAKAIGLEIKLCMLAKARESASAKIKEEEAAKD

[12] = target: 26S proteasome non-ATPase regulatory subunit 14 (Homo sapiens, UniProt O00487); assay: inhibition of proteasome subunit RPN11 – biochemical, fluorescence polarization, uHTS hits, confirmation (AID 602368); assay type: functional
Chain of 26S proteasome non-ATPase regulatory subunit 14 (O00487 whole entry): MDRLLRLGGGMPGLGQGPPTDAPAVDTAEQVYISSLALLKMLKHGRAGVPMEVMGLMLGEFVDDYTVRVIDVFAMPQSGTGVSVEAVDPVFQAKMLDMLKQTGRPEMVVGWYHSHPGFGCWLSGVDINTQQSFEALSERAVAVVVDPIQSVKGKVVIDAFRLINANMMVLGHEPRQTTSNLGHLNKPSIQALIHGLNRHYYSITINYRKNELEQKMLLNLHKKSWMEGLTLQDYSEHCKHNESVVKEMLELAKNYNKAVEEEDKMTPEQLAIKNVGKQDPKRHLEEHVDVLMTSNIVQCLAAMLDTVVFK

[13] = target: 72 kDa type IV collagenase (Homo sapiens, UniProt P08253); assay: Dose Response validation of uHTS RPN11 inhibitor hits using a MMP-2 Fluorescence assay.; assay type: functional
Chain of 72 kDa type IV collagenase (P08253 whole entry): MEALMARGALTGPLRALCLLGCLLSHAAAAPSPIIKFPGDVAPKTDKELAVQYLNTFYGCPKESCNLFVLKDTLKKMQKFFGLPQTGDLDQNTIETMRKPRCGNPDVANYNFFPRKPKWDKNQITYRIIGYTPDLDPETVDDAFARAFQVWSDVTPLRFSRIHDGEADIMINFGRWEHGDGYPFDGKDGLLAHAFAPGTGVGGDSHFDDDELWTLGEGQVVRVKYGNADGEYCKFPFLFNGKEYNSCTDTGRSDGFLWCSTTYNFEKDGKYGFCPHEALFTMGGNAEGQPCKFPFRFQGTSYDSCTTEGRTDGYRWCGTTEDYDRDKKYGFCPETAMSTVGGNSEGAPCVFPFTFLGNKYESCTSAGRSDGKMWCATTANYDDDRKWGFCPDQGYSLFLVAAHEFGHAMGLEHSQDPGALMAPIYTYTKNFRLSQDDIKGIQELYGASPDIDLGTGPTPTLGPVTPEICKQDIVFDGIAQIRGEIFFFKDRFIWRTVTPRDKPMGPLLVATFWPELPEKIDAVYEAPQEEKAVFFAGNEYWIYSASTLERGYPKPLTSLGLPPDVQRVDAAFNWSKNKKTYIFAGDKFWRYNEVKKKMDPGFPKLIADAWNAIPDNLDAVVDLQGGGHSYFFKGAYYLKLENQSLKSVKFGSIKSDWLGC

Prothrombin = Prothrombin (Bos taurus, UniProt P00735); assay: thrombin protease inhibitors – biochemical, fluorescence polarization, uHTS hits, dose response (AID 602369); assay type: functional
[14] = target: T3, Rac GTPase-activating protein 1 (Homo sapiens, UniProt Q9H0H5); assay: blockers of MgcRacGAP-driven Rac1 GTP hydrolysis – biochemical, ADP Hunter fluorescence, primary and confirmatory, confirmation (AID 624330); assay type: functional
T3 sequence (Q9H0H5 whole entry): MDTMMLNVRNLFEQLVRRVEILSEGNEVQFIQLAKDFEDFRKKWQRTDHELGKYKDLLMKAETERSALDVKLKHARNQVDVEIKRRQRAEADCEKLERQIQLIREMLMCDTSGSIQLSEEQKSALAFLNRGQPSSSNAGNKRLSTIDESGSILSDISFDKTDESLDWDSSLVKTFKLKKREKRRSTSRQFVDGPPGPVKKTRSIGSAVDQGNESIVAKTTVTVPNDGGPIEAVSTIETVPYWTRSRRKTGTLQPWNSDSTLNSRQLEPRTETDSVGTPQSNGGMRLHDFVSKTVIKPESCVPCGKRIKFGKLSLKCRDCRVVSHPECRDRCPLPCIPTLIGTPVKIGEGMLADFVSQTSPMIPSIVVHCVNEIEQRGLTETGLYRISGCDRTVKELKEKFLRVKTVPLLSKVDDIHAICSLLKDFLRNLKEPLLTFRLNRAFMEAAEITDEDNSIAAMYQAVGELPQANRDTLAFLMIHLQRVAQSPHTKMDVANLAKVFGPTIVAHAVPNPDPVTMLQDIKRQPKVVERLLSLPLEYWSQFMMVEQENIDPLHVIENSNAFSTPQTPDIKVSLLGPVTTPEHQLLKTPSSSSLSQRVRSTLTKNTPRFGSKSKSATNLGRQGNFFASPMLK

[15] = target: T4, Histone-lysine N-methyltransferase NSD2 (Homo sapiens, UniProt O96028); assay type: biochemical
T4 sequence (O96028 whole entry): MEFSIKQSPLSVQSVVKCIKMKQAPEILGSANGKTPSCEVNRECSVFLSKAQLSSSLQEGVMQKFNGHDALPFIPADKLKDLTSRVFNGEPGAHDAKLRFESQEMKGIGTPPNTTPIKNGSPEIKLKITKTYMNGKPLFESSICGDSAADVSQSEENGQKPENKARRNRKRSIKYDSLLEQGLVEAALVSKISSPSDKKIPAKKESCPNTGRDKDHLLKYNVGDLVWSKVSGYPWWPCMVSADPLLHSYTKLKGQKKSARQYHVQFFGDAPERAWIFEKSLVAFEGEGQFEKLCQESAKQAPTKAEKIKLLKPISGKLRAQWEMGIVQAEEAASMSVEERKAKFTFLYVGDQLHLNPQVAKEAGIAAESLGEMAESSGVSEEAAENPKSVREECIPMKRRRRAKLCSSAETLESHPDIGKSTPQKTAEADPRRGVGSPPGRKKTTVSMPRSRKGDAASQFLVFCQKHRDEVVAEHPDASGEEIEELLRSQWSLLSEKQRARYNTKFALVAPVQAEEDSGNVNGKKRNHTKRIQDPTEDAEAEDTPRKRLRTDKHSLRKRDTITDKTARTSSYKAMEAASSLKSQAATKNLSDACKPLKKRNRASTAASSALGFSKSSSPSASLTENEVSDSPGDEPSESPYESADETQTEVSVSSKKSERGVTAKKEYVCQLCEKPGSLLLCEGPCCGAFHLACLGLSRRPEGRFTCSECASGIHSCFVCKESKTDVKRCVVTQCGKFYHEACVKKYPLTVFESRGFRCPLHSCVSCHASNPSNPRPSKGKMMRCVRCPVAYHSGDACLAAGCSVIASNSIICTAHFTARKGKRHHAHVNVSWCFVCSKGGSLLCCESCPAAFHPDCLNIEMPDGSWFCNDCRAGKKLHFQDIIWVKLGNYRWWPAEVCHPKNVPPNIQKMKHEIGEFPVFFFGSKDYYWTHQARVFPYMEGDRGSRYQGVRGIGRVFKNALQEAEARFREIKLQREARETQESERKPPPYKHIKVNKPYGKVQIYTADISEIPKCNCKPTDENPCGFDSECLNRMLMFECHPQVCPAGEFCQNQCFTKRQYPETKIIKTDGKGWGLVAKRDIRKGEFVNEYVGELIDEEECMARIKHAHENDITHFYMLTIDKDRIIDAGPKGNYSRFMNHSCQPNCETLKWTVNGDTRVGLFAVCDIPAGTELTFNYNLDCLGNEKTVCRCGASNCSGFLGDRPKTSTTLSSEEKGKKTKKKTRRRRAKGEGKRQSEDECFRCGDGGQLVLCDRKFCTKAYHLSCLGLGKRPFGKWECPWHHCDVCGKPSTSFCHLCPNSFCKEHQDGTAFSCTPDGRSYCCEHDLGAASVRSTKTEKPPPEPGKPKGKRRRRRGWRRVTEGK

NADPH oxidase 1 = NADPH oxidase 1 (Homo sapiens, UniProt Q9Y5S8); assay: Late-stage luminescence-based cell-based dose response assay to identify inhibitors of NADPH oxidase 1 (NOX1): Purchased analogs 2.; assay type: functional
Chain of NADPH oxidase 1 (Q9Y5S8 whole entry): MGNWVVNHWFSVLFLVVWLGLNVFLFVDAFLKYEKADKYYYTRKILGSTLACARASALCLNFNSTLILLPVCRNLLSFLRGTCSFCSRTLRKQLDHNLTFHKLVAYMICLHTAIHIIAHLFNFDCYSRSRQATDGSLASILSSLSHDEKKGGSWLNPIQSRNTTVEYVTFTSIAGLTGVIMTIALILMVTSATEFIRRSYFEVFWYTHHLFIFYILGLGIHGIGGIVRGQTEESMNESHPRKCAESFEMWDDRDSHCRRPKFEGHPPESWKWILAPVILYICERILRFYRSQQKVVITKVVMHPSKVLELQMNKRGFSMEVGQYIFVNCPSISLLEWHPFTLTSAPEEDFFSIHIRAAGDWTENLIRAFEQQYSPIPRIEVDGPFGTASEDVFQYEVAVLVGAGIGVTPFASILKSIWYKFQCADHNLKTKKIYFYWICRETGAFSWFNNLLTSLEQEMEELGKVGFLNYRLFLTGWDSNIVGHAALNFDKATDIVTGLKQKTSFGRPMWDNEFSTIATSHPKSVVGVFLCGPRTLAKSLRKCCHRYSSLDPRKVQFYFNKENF

[16] = M. tuberculosis growth inhibition, HTS (AID 449762); assay type: functional
Vero = assay: mammalian cell viability reduction – secondary assay, cytotoxicity control for West Nile virus antiviral project, dose response (AID 1650); assay type: functional; settings: Chlorocebus sabaeus
[17] = target: Sphingosine 1-phosphate receptor 2 (Homo sapiens, UniProt O95136); assay: Dose Response Cell Based Assay for Agonists of the S1P2 Receptor. [Related pubchem assays: 729, 736, 843 ]; assay type: functional
Chain of Sphingosine 1-phosphate receptor 2 (O95136 whole entry, the tested form may be a part): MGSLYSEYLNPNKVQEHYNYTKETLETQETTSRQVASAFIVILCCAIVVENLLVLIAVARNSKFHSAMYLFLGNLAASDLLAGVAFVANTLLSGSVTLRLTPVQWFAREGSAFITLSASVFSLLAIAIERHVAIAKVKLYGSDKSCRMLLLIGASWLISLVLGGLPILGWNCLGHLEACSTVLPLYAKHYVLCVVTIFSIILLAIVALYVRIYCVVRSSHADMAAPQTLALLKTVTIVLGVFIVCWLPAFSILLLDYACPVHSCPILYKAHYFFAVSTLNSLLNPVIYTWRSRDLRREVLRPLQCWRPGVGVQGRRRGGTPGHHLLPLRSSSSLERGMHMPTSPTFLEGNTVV

[18] = target: T5, RNA-binding protein pos-1 (Caenorhabditis elegans, UniProt G5EF15); assay: disruptors of C. elegans POS-1 RNA interaction – biochemical, fluorescence polarization, dose response (AID 1964);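 note: purified POS-1 fused to maltose binding protein made in E. coli; potency of compounds blocking POS-1 binding to fluorescent RNA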
T5 sequence (G5EF15 whole entry): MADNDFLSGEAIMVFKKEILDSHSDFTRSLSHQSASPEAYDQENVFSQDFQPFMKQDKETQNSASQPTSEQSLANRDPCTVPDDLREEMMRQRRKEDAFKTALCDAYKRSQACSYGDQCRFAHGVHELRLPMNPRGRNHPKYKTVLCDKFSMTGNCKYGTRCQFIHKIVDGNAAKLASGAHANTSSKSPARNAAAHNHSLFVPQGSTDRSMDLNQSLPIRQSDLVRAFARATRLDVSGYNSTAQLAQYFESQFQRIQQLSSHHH

[19] = target: T6, Zinc finger protein mex-5 (Caenorhabditis elegans, UniProt Q9XUB2); assay: potency of MEX-5 RNA-binding blockers – biochemical, C. elegans, fluorescence polarization, dose response (AID 1960)
T6 sequence (Q9XUB2 whole entry): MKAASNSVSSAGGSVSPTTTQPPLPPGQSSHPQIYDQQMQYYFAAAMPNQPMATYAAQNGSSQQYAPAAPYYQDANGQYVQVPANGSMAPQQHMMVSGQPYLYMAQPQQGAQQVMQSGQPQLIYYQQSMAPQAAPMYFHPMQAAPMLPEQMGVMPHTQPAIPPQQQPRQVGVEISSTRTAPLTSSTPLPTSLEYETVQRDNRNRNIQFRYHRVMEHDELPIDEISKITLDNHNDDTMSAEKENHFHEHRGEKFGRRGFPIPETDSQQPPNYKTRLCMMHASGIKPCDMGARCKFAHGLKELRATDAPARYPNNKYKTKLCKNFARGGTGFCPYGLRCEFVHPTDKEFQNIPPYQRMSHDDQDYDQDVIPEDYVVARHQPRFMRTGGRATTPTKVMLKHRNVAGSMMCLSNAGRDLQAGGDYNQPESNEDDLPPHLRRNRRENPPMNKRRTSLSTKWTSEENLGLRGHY

[20] = target: Peroxisome proliferator-activated receptor gamma/Nuclear receptor corepressor 2 (Homo sapiens, UniProt P37231+Q9Y618); assay: Counterscreen for NR2E3 inverse agonists: TR-FRET-based biochemical high throughput dose response assay to identify inverse agonists of the interaction between peroxisome proliferator-activated receptor gamma (PPARg) and nuclear receptor co-repressor 2 (NCOR2).; assay type: functional
[21] = target: Photoreceptor-specific nuclear receptor (Homo sapiens, UniProt Q9Y5X4); assay: ligands suppressing NR2E3 nuclear receptor activity – biochemical, TR-FRET, dose response (AID 463256); assay type: functional
[22] = target: Dual specificity tyrosine-phosphorylation-regulated kinase 1A (Rattus norvegicus, UniProt Q63470); assay type: biochemical, Homo sapiens

Clc1ccc(-n2nnc(-c3cnc4ccccc4c3)n2)cc1Cl
IC50 (Bcl-2-related protein A1 [1]): > 100 µM (not active) | IC50 (Bcl-2-related protein A1 [2]): > 100 µM (not active)

COc1cc2c(cc1OC)-c1cc(N3CCCc4ccccc43)nc(=O)n1CC2
IC50 [3]: > 40 µM (not active) | EC50 [4]: > 112 µM (not active) | EC50 [5]: 3.35 µM (active) | IC50 [6]: 13.2 µM (active)

CCCN(CCC)C(=O)c1ccc(-n2sc3ccccc3c2=O)cc1
IC50 [7]: 7.64 µM (active)

Cc1cc2cc(C)c(SCC(=O)NCc3ccco3)nc2cc1C
EC50 [8]: 489 µM (not active)

Cc1ccc(N2C(=O)NC(=O)/C(=C/c3ccoc3)C2=O)cc1
IC50 [9]: 66.5 µM (active) | IC50 [10]: 4.84 µM (active) | IC50 [11]: 4 µM (active) | IC50 [12]: 6.76 µM (active) | IC50 [13]: 3.45 µM (active) | IC50 (Prothrombin): 84.7 µM (active) | IC50 [14]: 55.7 µM (active) | AC50 [15]: 7.88 µM (active)

O=C1Nc2cc(F)ccc2/C1=N/Nc1c(F)c(F)nc(F)c1F
IC50 (NADPH oxidase 1): > 17 µM (not active)

C/C(=C\C(=O)c1ccccc1)Nc1ccc(Cl)c(Br)c1
IC50 [16]: > 100 µM (active)

CC(C(=O)N(C)C1CCS(=O)(=O)C1)N1C(=O)/C(=C/c2cccs2)SC1=S (stereo not given)
CC50 (Vero): 32.1 µM (active)

O=C1SC(c2ccccc2)=N/C1=C/c1ccco1
EC50 [17]: > 50 µM (not active)

N=C1NC(=O)/C(=C/c2ccc(-c3ccc(S(N)(=O)=O)cc3)o2)S1
EC50 [18]: 31.9 µM (active) | EC50 [19]: 15 µM (active) | IC50 [20]: > 39.8 µM (not active) | IC50 [21]: 14.2 µM (not active) | AC50 [22]: 1.97 µM (active)
